Source: the OPERA property sets (Mansouri et al. 2018)

Details: for log10 BCF / log10 biotransformation half-life (days): fish

| SMILES | melting point | boiling point | further results |
| --- | --- | --- | --- |
| CC1CCCC(C)N1C(=O)COC(=O)c1ccccc1 (stereo unspecified) | 118 °C | – | – |
| Nn1cnnc1 | 82.5 °C | – | – |
| CC(=O)CC(=O)c1cccnc1 | 85 °C | – | – |
| CCC(C)=CCl | – | 96.5 °C | – |
| COc1cccc(OC)c1 | -52 °C | 218 °C | ready biodegradability: readily biodegradable |
| NS(=O)(=O)c1ccc(S(=O)(=O)CCCCO)cc1 | 134 °C | – | – |
| Clc1cccc2c1Oc1ccccc1O2 | 104 °C | – | log10 vapour pressure (mmHg): -4.05 |
| N#Cc1c(F)c(F)cc(F)c1F | 34 °C | – | – |
| O=C(O)COc1cccc2ccccc12 | 196 °C | – | – |
| CCOC(=O)C(Cl)CCl (stereo unspecified) | – | 184 °C | – |
| C=C1CCO[C@]2([C@H](O)[C@@](C)(O)CO)NC(=O)[C@@]1(O)NC2=O | 188 °C | – | – |
| C[SiH](Cl)Cl | -93 °C | 41 °C | log10 vapour pressure (mmHg): 2.63 |
| Cc1cccc(C)n1 | -6.1 °C | 144 °C | log10 Henry constant (atm·m³/mol): -4.98; log10 vapour pressure (mmHg): 0.752 |
| CNc1ccc(N)c2c1C(=O)c1ccccc1C2=O | 193 °C | – | – |
| CC1(C)CCCc2ccccc21 | – | 221 °C | – |
| COc1cccc(OC)c1C(=O)O | – | – | log10 vapour pressure (mmHg): -6.72 |
| Cc1ccc(C(=O)c2ccc(C)cc2)cc1 | 96.5 °C | 334 °C | – |
| N#CSCc1ccccc1 | 43 °C | 232 °C | – |
| Nc1ccc(/N=N/c2ccccc2)cc1 | 127 °C | 366 °C | log10 Koc (L/kg): 2.79; log10 vapour pressure (mmHg): -5.85; ready biodegradability: not readily biodegradable |
| NC1CCCCCCC1 | -48 °C | 190 °C | – |
| CC(C)=CCO | – | 140 °C | – |

| SMILES | melting point | boiling point | further results |
| --- | --- | --- | --- |
| Clc1ccc(SSc2ccc(Cl)cc2)cc1 | 68 °C | – | – |
| COCC(C)N(C(=O)CCl)c1c(C)csc1C (stereo unspecified) | – | – | log10 Henry constant (atm·m³/mol): -7.09; log10 vapour pressure (mmHg): -3.56 |
| C=COC(C)C | -140 °C | 55.5 °C | – |
| Cn1c([N+](=O)[O-])cnc1/C=C/c1ccnc(N)n1 | 234 °C | – | – |
| CC(=O)N[C@@H](CCC(=O)O)C(=O)O | 199 °C | – | – |
| CC(C)(C)c1ccc(C(C)(C)C)cc1 | 79.5 °C | 238 °C | – |
| O=C(OCCO)c1ccccc1 | 45 °C | – | – |
| Cc1cc(Cl)nn1C | 47.5 °C | 211 °C | – |
| COc1ccccc1-c1ccccc1 | 29 °C | 274 °C | – |
| CC(=O)c1ccc([N+](=O)[O-])cc1 | 81.8 °C | – | – |
| CN1CCCC1=O | -24 °C | 202 °C | log10 Henry constant (atm·m³/mol): -8.49; log10 vapour pressure (mmHg): -0.462; ready biodegradability: readily biodegradable |
| CC=CC=C(C)C | -74.2 °C | 112 °C | – |
| CC(C)C(C(C)C)C(C)C | -81.7 °C | 157 °C | – |
| CCCCCCCC(=O)O | 16.3 °C | 239 °C | log10 vapour pressure (mmHg): -2.43; ready biodegradability: readily biodegradable |
| O=C(c1ccccc1O)N1CCOCC1 | 175 °C | – | – |
| O=C(O)CNC(=O)c1ccccc1 | 192 °C | – | ready biodegradability: readily biodegradable |
| CCn1cc(C(=O)O)c(=O)c2ccc(C)nc21 | 230 °C | – | – |
| CC(=O)c1cc2ccccc2o1 | 76 °C | – | – |
| Oc1cccc2c1CCCC2 | 70 °C | 266 °C | – |
| COc1ccccc1N1CCN(CCCNc2cc(=O)n(C)c(=O)n2C)CC1 | 157 °C | – | – |
| CC1CCCNC1=O (stereo unspecified) | 55.3 °C | 250 °C | – |

| SMILES | melting point | boiling point | further results |
| --- | --- | --- | --- |
| C1=CC=CCC=C1 | -79.5 °C | 117 °C | log10 vapour pressure (mmHg): 1.37 |
| CCCCCCCCCCCCCCCCCCOC(=O)CCc1cc(C(C)(C)C)c(O)c(C(C)(C)C)c1 | – | – | ready biodegradability: not readily biodegradable |
| O=C(O)c1cncc(C(=O)O)c1 | 324 °C | – | – |
| CCOC(O)C(Cl)(Cl)Cl (stereo unspecified) | 56.5 °C | 116 °C | – |
| CC(O)(c1ccc(Cl)cc1)c1ccc(Cl)cc1 | 70 °C | – | – |
| CC(C)(C)C(=O)CC#N | 71 °C | – | – |
| c1ccc2sc(SN(C3CCCCC3)C3CCCCC3)nc2c1 | 99.8 °C | – | ready biodegradability: not readily biodegradable |
| O=P(OC(Cl)CCCl)(OC(Cl)CCCl)OC(Cl)CCCl (stereo unspecified) | 26.7 °C | – | – |
| O=[N+]([O-])c1c(Cl)ccc2ccccc12 | 99.5 °C | – | – |
| C=CCOCCO | – | 158 °C | – |
| COc1ccc(CO)cc1O | 136 °C | – | – |
| C=CC/C=C/C | -139 °C | 65 °C | log10 vapour pressure (mmHg): 2.24 |
| CC=C(C)C=CC=C(C)C | -28 °C | – | – |
| Clc1ccc(Cl)c(-c2ccc(Cl)c(Cl)c2Cl)c1 | – | – | log10 Henry constant (atm·m³/mol): -4.13; log10 Koc (L/kg): 4.62; log10 vapour pressure (mmHg): -4.77; log10 BCF: 5.38; log10 biotransformation half-life (days): 2.31 |
| Cc1cc(C)cc(C(=O)O)c1 | 171 °C | – | – |
| Oc1ccc(C2CCCCC2)cc1 | 133 °C | 294 °C | – |
| COP(=S)(OC)Oc1cc(Cl)c(Br)cc1Cl | 53.5 °C | – | log10 vapour pressure (mmHg): -3.89; log10 BCF: 3.59; log10 biotransformation half-life (days): 0.97 |
| CCOC(OCC)N(C)C | – | 129 °C | – |
| CC(=O)O[Si](C)(C)OC(C)=O | -12.5 °C | 165 °C | – |
| O=S1(=O)OCCO1 | 99 °C | – | – |
| c1ccc(Oc2ccccc2)cc1 | 26.8 °C | 258 °C | log10 Koc (L/kg): 3.29; log10 vapour pressure (mmHg): -1.65; ready biodegradability: readily biodegradable; log10 BCF: 2.5; log10 biotransformation half-life (days): -0.09 |
